Reference: patent publication US8466104B2, “Therapeutically active alpha MSH analogues” (AbbVie Inc., priority 2005, dated 2013)
Entries after “also recorded” stand apart in the source; their conditions may differ.

Columns and labels:
[1] = test system: ischemia-induced acute renal failure in rats; assay: Inhibition of renal failure induced by 40 minutes bilateral occlusion of the renal arteries in rats (experimental setup 6); assay type: in vivo, rat; settings: for effect on post ischemic polyuria: bilateral renal ischemia; for diuresis (urine flow rate): 5 day after bilateral renal ischemia (RIR), 200 μg/kg iv
Method: Inhibition of Renal Failure Induced by 40 Minutes Bilateral Occlusion of the Renal Arteries in Rats
Barrier-bred and specific pathogen-free female Wistar rats (250 g) are obtained from Charles River, Hannover, Germany. The animals are housed in a temperature (22-24° C.) and moisture (40-70%) controlled room with a 12-hour light-dark cycle (light on from 6:00 A.M. to 6:00 P.M.). All animals are given free access to tap water and a pelleted rat diet containing approximately 140 mmol/kg of sodium, 275 mmol/kg potassium and 23% protein (Altromin catalogue no. 1310, Altromin International, Lage, Germany).
The rats, which previously have been instrumented with a chronic venous catheter, are placed in metabolic cages and after a two days acclimation period to the metabolic cages, experimental ARF is induced by occlusion of both renal arteries for […]. During surgery, the rats are anesthetized with isoflurane-nitrous oxide and placed on a heated table to maintain rectal temperature at 37° C. Both kidneys are exposed through flank incisions, mobilized by being dissected free from the perirenal fat, then a small portion of the renal artery is gently dissected from the vein. The renal arteries are occluded with a smooth surfaced vascular clip (60 g pressure; World Precision Instruments, UK) for 40 min. Total ischemia is confirmed by observing blanching of the entire kidney surface. During the period of ischemia, the wounds are closed temporarily to maintain body temperature. After the clips are removed, the kidneys are observed for additional 2-5 min. to ensure color change, indicating blood reflow. Then the wound are closed with 3-0 silk ligatures. The rats returned to the metabolic cages, and daily 24 h urine output and water intake are measured for five days. As a control group, rats are subjected to sham operations identical to the ones used for ARF rats without occlusion of the renal arteries. Sham-operated rats are monitored in parallel with rats with ARF.
The rats are subjected to one of the following i.v treatments: • Vehicle: 0.5 ml 150 mM NaCl. • a-MSH: 200 μg a-melanocyte stimulating hormone/kg b.w. in 0.5 ml 150 mM NaCl. Test compound: 200 μg test compound/kg b.w. in 0.5 ml 150 mM NaCl. Treatment is given 5 minutes prior to reperfusion of the kidney and subsequently 6 and 24 hours later. Statistics
(§1) Data are presented as mean±S.E. Within group comparisons are analysed with Student's paired t test. Between group comparisons are performed by one way analysis of variance followed by Fishers Least Significant Difference test. Differences are considered significant at the 0.05 level.

[2] = test system: cisplatin induced renal failure in rats; assay: Inhibition of cisplatin induced renal failure (experimental setup 7); assay type: in vivo, rat; settings: for effect on cisplatin induced fall in GFR / effect on cisplatin induced hypomagnesemia: rats treated with cisplatin; for Plasma Mg: rats treated with cisplatin 5.0 mg/kg ip, 200 μg/kg iv test compound
Method: Inhibition of Cisplatin Induced Renal Failure
Rats, which previously have been instrumented with a chronic venous catheter, are placed in metabolic cages and after a period of acclimation to the metabolic cages the rats are treated with an intreperitoneal cisplatin injection 5.0 mg/kg bw in 0.5 ml 150 mM NaCl or vehicle (0.5 ml 150 mM NaCl). Five days later the rats are then returned to metabolic cages, and daily 24 h urine output and water intake are measured and collected for the next five days. All rats are then anesthetized in halothan/N2O and an arterial blood sample collected in prechilled EDTA coated vials. The blood samples are collected in a prechilled test tube with 0.5 mM EDTA, pH 7.4, and 20×10^6 IU/ml aprotinin. After centrifugation at 4° C., plasma samples are transferred to pre-chilled test tubes and stored at −20° C. for later measurements of creatinine and Magnesium (Mg). In addition to this creatinine is also measured in the urine collected in the last 24 hours period prior to the blood collection. […] Measurement of creatinine in urine and plasma is performed by use of the clinical chemistry systems VITROS 950 (Ortho-Clinical Diagnostics Inc., Johnson & Johnson, NJ) and Roche Hitachi Modular (Roche Diagnostics, Mannheim, Germany).
The rats are subjected to one of the following i.v treatments: • Vehicle: 0.5 ml 150 mM NaCl • a-MSH: 200 μg o-melanocyte stimulating hormone/kg b.w. in 0.5 ml 150 mM NaCl. • Test compound: 200 μg test compound/kg b.w. in 0.5 ml 150 mM NaCl. Treatment is given 5 minutes prior to reperfusion of the kidney and subsequently 6 and 24 hours later. Statistics
as §1

## Ac-Lys-Lys-Lys-Lys-Lys-Lys-Ser-Tyr-Ser-Nle-Glu-His-(D-Phe)-Arg-Trp-Gly-Lys-Pro-Val-NH2 (KKKKKKSYSXEHFRWGKPV; N-acetyl, Nle, D-Phe, C-amide) [a-MSH analogue #2]
[1]
  effect on post ischemic polyuria: markedly reduces the degree of polyuria
[2]
  effect on cisplatin induced fall in GFR: prevents cisplatin induced hypomagnesemia as well as the cisplatin induced fall in GFR
  effect on cisplatin induced hypomagnesemia: prevents cisplatin induced hypomagnesemia

## Ac-Lys-Lys-Lys-Lys-Lys-Lys-Ser-Tyr-Ser-Met-Glu-His-Phe-Arg-Trp-Gly-Lys-Pro-Val-NH2 (Ac-KKKKKKSYSMEHFRWGKPV-NH2) [a-MSH analogue #1]
[1]
  diuresis (urine flow rate): 18.8±3.6 ml/24 hours
  effect on post ischemic polyuria: complete normalization of urine flow rate
[1]; listed as SEQ ID NO: 1
  effect on post ischemic polyuria: completely normalized the diuresis
[2]
  effect on cisplatin induced fall in GFR: prevents the cisplatin induced fall in GFR
  effect on cisplatin induced hypomagnesemia: prevents cisplatin induced hypomagnesemia
  Plasma Mg: 0.84 ± 0.04 mM

## Ser-Tyr-Ser-Met-Glu-His-Phe-Arg-Trp-Gly-Lys-Pro-Val [a-MSH, reference compound]
[1]
  diuresis (urine flow rate): 29.0±2.9 ml/24 hours
  effect on post ischemic polyuria: unable to reduce the polyuria; also recorded: unable to normalize the urine production
[2]
  Plasma Mg: 0.37 ± 0.04 mM
